For test [1], the system named is LB6-D1D2 cells. Nature of the test: Chemotaxis assay, LB6-D1D2 cells (uPAR lacking domain 3). It is filed as cell-based, mouse. How it is done: (§1) Chemotaxis assay was performed as described (Degryse et al., 1999, 2001a, 2001b) with modified Boyden chambers. Filters (5 μm pore size, Neuro Probe, Gaithersburg, Md.) were treated with collagen I (100 μg/ml) and fibronectin (10 μg/ml, Roche).≈40-50,000 cells in serum-free DMEM were added to the upper well and the chemoattractants tested added to the lower well. When present, antibodies, or inhibitors were added in both wells. After overnight migration at 37° C., cells remaining on the upper surface of filters were scraped off and filters were fixed in methanol and stained in a solution of 10% (w/v) crystal violet in 20% (v/v) methanol. The experiments were performed at least twice in triplicate and the results, expressed as fold over control, are the mean ±SD of the number of cells counted in ten high power fields per filter. Random cell migration, i.e. migration in the absence of chemoattractant, was given the arbitrary value of 100%.

Test [2] concerns LB6-D1HD3 cells. Nature of the test: 125I-VN cell binding, LB6-D1HD3. More on the design: species or system mouse. As to conditions: 125I-VN 0.5 nM, on ice 90 minutes. How it is done: (§2) VN was iodinated using Iodogen (Pierce Chemical Co.) at a specific activity of 30-60×10^6 cpm/mg. Briefly, 10 μg of VN dissolved in 0.1 M tris pH 7.6, 0.1% (v/v) Tween 80, were incubated with 0.5 μCi ^125Iodine for 15 minutes at room temperature, in a volume of 100 μl. The reaction was stopped by adding 1 ml of stop/elution buffer, 0.1 M tris pH 8.1, 0.1% (v/v) Chaps and 50 μl of N-acetyl tyrosine (10 mg/ml in 0.1 M tris pH 7.4). Labeled VN was separated from unbound ^125Iodine by gel chromatography in PD-10 column (Pharmacia) in the stop/elution buffer.
(§3) Cells were seeded in 96-well culture dishes treated overnight with 1.5% gelatin in PBS pH 7.4, grown to confluence in DMEM plus 10% FCS, then serum-starved for 24 hours in DMEM. Total binding was determined by incubating the cells on ice for 90 minutes in binding buffer (DMEM containing 0.1% (w/v) BSA and 10 mM Hepes pH 7.4) plus 0.5 nM ^125I-VN. Nonspecific binding was measured by competition with a 100 fold excess of unlabeled VN. At the end of the incubation time, the cells were washed 3 times with ice-cold binding buffer and once with ice-cold PBS, then lysed in a solution of 1% SDS, 1% Triton X-100 and the associated radioactivity counted. Cell number was determined in 6 wells per lines cultured in parallel, and the results were standardized as cpm/10^5 cells.

In test [3] the test system is LB6-D1HD3 cells. The test can be described thus: Chemotaxis assay, LB6-D1HD3 cells (uPAR lacking domain 2). The format is cell-based, mouse. How it is done:
as §1

In test [4] the test system is RSMC. The test can be described thus: Immunofluorescence microscopy, actin cytoskeleton and cell morphology. The format is cell-based, rat. As to conditions: 30 minutes at 37° C., peptide 1 pM or VN 1 μg/ml. As for the experimental part: (§4) As previously described (Degryse et al., 1999; 2004) 15,000-25,000 cells (20-40% confluence), were seeded on glass coverslips in 2 cm^2 well, cultured for 24 hours in DMEM plus 10% FCS, washed with PBS and cultured for another 24 hours without FCS. After stimulation, RSMC were fixed for 20 min at RT with 3% paraformaldehyde, 2% sucrose in PBS pH 7.5, washed 3 times with PBS-BSA 0.2%, permeabilized with 20 mM hepes pH 7.4, 300 mM saccharose, 50 mM NaCl, 3 mM MgCl2, 0.5% (v/v) Triton X-100 for 3 min at 4° C., and washed 3 times with PBS-BSA 0.2%. RSMC were incubated in PBS-BSA 2% for 15 min at 37° C., then with anti-Stat1 primary antibodies for 30 min at 37° C., washed 3 times with PBS-BSA 0.2%, and further incubated with PBS-BSA 2% for 15 min at 37° C. Cells were stained with the secondary TRITC-antibody and with FITC-phalloidin for visualization of filamentous actin, for 30 min at 37° C. DAPI (4′,6-diamidino-2-phenylindole, Roche) was used to label the nucleus. Finally, after 3 washes with PBS-BSA 0.2%, one with distilled water, coverslips were mounted with 20% (w/v) Mowiol. Fluorescence Photographs were taken with a Zeiss Axiophot microscope

Test [5] deals with HEK-293-uPAR cells. Nature of the test: Chemotaxis assay, HEK-293-uPAR cells. It is filed as cell-based, human. As for the experimental part: as §1
Test [6] concerns LB6 clone 19 cells. The test can be described thus: Chemotaxis assay, LB6 clone 19 cells (wild-type human uPAR). The format is cell-based, mouse. As to conditions: VN 5 μg/ml. How it is done:
as §1

In test [7] the test system is HEK-293 cells. The test can be described thus: Chemotaxis assay, HEK-293 cells. As to conditions: HEK-293, VN 1 μg/ml. It is filed as cell-based, human. How it is done:
as §1

In test [8] the test system is LB6 cells. The test can be described thus: Chemotaxis assay, modified Boyden chambers, LB6 cells. The format is cell-based, mouse. As for the experimental part:
as §1

Test [9] deals with Stat1. The test can be described thus: Immunofluorescence microscopy, Stat1 distribution. It is filed as cell-based, rat. As to conditions: RSMC, 30 minutes at 37° C., peptide 1 pM or VN 1 μg/ml. As for the experimental part:
as §4
To quantify the activation of Stat1, random pictures were taken and nuclei positively stained for Stat1 were counted and expressed in percent.

Test [10] has as its system NIH 3T3-uPAR cells. Nature of the test: Chemotaxis assay, NIH 3T3-uPAR cells. It is filed as cell-based, mouse. As to conditions: VN 1 μg/ml. How it is done:
as §1

The subject of test [11] is human HT1080 fibrosarcoma cells. Nature of the test: Matrigel invasion assay. As to conditions: substance alone, 24 hours at 37° C. The format is cell-based.
Test [12] concerns LB6-D1D2 cells. Nature of the test: 125I-VN cell binding, LB6-D1D2. As to conditions: 125I-VN 0.5 nM, on ice 90 minutes. More on the design: species or system mouse. As for the experimental part:
as §2, §3

In test [13] the test system is LB6 clone 19 cells. Nature of the test: 125I-VN cell binding, LB6 clone 19. On the set-up: species or system mouse. As to conditions: 125I-VN 0.5 nM, on ice 90 minutes. How it is done:
as §2, §3

Test [14] concerns NIH 3T3 cells. The test can be described thus: Chemotaxis assay, NIH 3T3 cells. The format is cell-based, mouse. As to conditions: NIH 3T3, VN 1 μg/ml. How it is done:
as §1

Test [15] relates to NIH 3T3-D1HD3 cells. Nature of the test: Chemotaxis assay, NIH 3T3-D1HD3 cells. The format is cell-based, mouse. As for the experimental part:
as §1

Regarding “VN: vitronectin purified from human plasma”, the VN-dependent cell migration was 280 ± 6.0 % of control in [1] (LB6-D1D2, VN 5 μg/ml); 102 ± 5.0 % of control in [3] (LB6-D1HD3, VN 5 μg/ml); 394.3 % of control in test [5] (HEK-293-uPAR, VN 1 μg/ml); 906 ± 22.8 % of control in test [6] (LB6 clone 19, wild-type uPAR); 199.1 % of control in [7]; 274 ± 3.8 % of control in [8] (LB6 cells, VN 5 μg/ml). The VN-dependent cell migration is recorded as 397 ± 11.1 % of control in test [10]; 222.7 ± 4.8 % of control in test [14]; 100 ± 4.0 % of control in test [15] (NIH 3T3-D1HD3, VN 1 μg/ml). In addition, the “maximal stimulation of chemotaxis” value in [1] (LB6-D1D2 cells, at 1 μg/ml) was “about four-fold”. In addition, the entries for the “VN binding to cells” value in test [2], in [12] and in [13] were “poorly”, “poorly” and “bound”, respectively. The stimulation of chemotaxis entry in [3] (LB6 cells transfected with D1HD3-uPAR, even at 10 μg/ml) is recorded as “failed to stimulate”; in test [8] (untransfected parental LB6 cells), 2.5 fold; in [15] (NIH3T3 cells transfected with D1HD3-uPAR, even at 10 μg/ml), “failed to stimulate”. The “cell morphology and actin cytoskeleton organization” value in [4] is “induced similar changes”. In addition, in test [5], the “chemotactic effect of VN in HEK-293-uPAR relative to untransfected HEK-293 cells” value is recorded as 2 fold. Moreover, the cell migration in test [5] (HEK-293-uPAR, VN 1 μg/ml) is listed as 417.25 ± 4.64 % of control; in test [7], 210.84 ± 26.95 % of control. Besides, the “enhancement of VN-directed cell migration of LB6 clone 19 compared to untransfected LB6 cells” value in test [6] came out at 3.3 fold. Moreover, the “Stat1 activation and translocation into the nucleus” value in test [9] was “reproduced this effect on Stat1 localization”. The “stimulation of Matrigel invasiveness of HT1080 cells” value in test [11] is given as “stimulate”.

For the origin of these results see patent US20080280833A1, “Therapeutic Peptides Derived from Urokinase Plasminogen Activator Receptor” (priority 2005, published 2008).
